From patent US7081495B1, “Cationic compounds and their use as macro molecular carriers” (School of Pharmacy, University of London, priority 1998, dated 2006)
Several values for one entry are separate records, joined by “and”; a condition that tells them apart may be missing. Identical values can stand only once. Non-standard residues stand in square brackets, D forms with d. Residues, ends and D or L forms follow the SMILES beside them. ξ: configuration not given here. *: point of attachment. X1 = NCCCC[C@H](N)C(=O)NCCCC[C@H](NC(=O)[C@@H](N)CCCCN)C(=O)*; ξGly(dodecyl) = CCCCCCCCCCCCC(N)C(=O)O

Assays:
[1] = tested on: Human Embryonic Kidney (HEK) 293 cells; assay: Transient transfection of HEK 293 cells with GABAA receptor α1 subunit cDNA; format: cell-based; conditions: […] compound 1a
Procedure: Human Embryonic Kidney (HEK) 293 cells were sub-cultured onto poly-L-lysine coated 35 mm petri dishes such that 24 h later the cells were still sub-confluent. Culture media was replaced on the morning of the transfection procedure. Cells were returned to the CO2—incubator ([…]/95% air) for 3 h.
Compound 1a was incubated with a GABAA receptor αl subunit cDNA-pCDM8 (Mammalian cell expression vector Thompson C. L. et al Neuroscience Let. 144 53–56 (1992)) construct (Fc2 μg/ml) in DMEM at weight ratios of 1:1, 10:1 and 100:1 (1a:α1 cDNA) for 30 minutes prior to transfection.
Cells were washed 3× with serum-free DMEM prior to application of compound 1a/GABAA receptor α subunit cDNA-vector (1ml/dish). Dishes were returned to the incubator (37° C.) for 5 h. Media was then supplemented with DMEM/10% FCS (1 ml/dish), returned to the incubator for 24 h. […]
24 h later the cells were washed 3× with phosphate-buffered saline and then fixed with methanol (−20° C., 25 min, 2 dishes from each regime) or 4% parafarmaldehyde (room temp., 15 min, 2 dishes from each regime). The cells were then processed for GABAA receptor α1 subunit-like immunoreactivity according to Thompson et al. Immunoreactivity was detected by diaminobenzidine staining and visualised under the light microscope.

[2] = In vivo distribution of 3H-dendrimer (liquid scintillation counting); set-up: species or system C57BL/6 mice
Procedure: Tritiated dendrimer synthesised as described in Example 1 above except 3H labelled BOC-lysine was prepared quantitatively from 3H-lysine purchased commercially based on the method of Keller et al Organ. Synth. 63, 160–170 (1985) (1a: Specific Activity 31Bq/ug @ 5 μg/μl in dH20) were made up to 1.2 μg/μl with 0.9% w/v sodium chloride BP. For each animal, complexes were formed at room temperature by adding 5 μg pCEP4hFIXint (as used in Example 11) in 100 μl 0.9% sodium chloride BP) dropwise to 100 μl dendrimer solution (dendrimer:DNA charge ratio about 4:1) with moderate vortexing. The complexes were then sonicated on ice with a hand-held probe at low power setting several times with three second pulses.
Male C57BL/6mice (8–10 weeks) were divided into two groups. The first group (n=8) were given approx. 150–200 μl of the complexes (exact dose determined by difference in weight of syringe pre/post injection) via tail vein injection. The second (n=4) were administered 150 μl of the complexes in a dosed food particle (isolation/observation confirmed ingestion of the food particle). At time-points 2 hours, 24 hours, 4 days, 7 days (group 1) and 24 hours, and 7 days (group 2) the mice were sacrificed and organs/fluids harvested. Blood and urine were collected when possible post mortem, the former in citrate tubes. Organs were weighed and immediately immersed in liquid nitrogen cooled isopentane to be kept at −80° C.
Organ samples for liquid scintillation counting (for detecting dendrimer) were processed as per “Packard Counting Solutions” protocol for samples <30 mg using Solvable (Packard) for all tissues except blood, urine and digestive tract tissues that were dissolved using Soluene-350 (Packard). The LSC cocktail used was Ultima Gold. Counting time was 10 minutes. Detection of episomal DNA was performed by PCR using primers that amplified a 460 bp section of the plasmid of the 3′ end of hFIX cDNA and the SV40 pA region

Rat red blood cells = assay: RBC lysis, compound alone or complexed with pSVβgal; conditions: pSVβgal 0.0125 μg/μl, 1 hour at 37° C.
Procedure: Rat red blood cells were obtained by centrifugation of complete blood. A 2% suspension of cells was made in phosphate buffered saline. […] The lysate supernatant was recovered by centrifugation and the absorbance measured at 540 nm. (Concentration of pSVβgal was 0.0125 μg/μl).

CCCCCCCCCCCCC(NC(=O)C(CCCCCCCCCCCC)NC(=O)C(CCCCCCCCCCCC)NC(=O)[C@H](CCCCNC(=O)[C@H](CCCCNC(=O)[C@@H](N)CCCCN)NC(=O)[C@@H](N)CCCCN)NC(=O)[C@H](CCCCNC(=O)[C@@H](N)CCCCN)NC(=O)[C@@H](N)CCCCN)C(N)=O (some centres unmarked) [Compound 1a] (H-KK(Lys)K(X1)[ξGly(dodecyl)][ξGly(dodecyl)][ξGly(dodecyl)]-NH2)
cell viability [1]: deleterious to cell viability | % age Total Dose, Heart ([2]; Oral, 24 hours): 0.53% | % age Total Dose, Kidney ([2]; Oral, 24 hours): 0.52% and 0.29% | % age Total Dose, Liver ([2]; Oral, 24 hours): 3.70% and 1.84% | % age Total Dose, Lungs ([2]; Oral, 24 hours): 0.78% | % age Total Dose, Spleen ([2]; Oral, 24 hours): 0.16% and 0.13% | % age Total Dose, Urine ([2]; Oral, 24 hours): 0.48% and 0.75% | % age Total Dose, Heart ([2]; i.v., 2 hours): 0.22% and 0.06% | % age Total Dose, Kidney ([2]; i.v., 2 hours): 0.34% and 0.48% | % age Total Dose, Liver ([2]; i.v., 2 hours): 10.35% and 2.07% | % age Total Dose, Lungs ([2]; i.v., 2 hours): 0.47% and 0.13% | % age Total Dose, Spleen ([2]; i.v., 2 hours): 1.00% and 0.30% | Activity, Urine ([2]; i.v., 2 hours): (21 Bq/0.1 ml) | % age Total Dose, Heart ([2]; i.v., 24 hours): 0.80% and 4.89% | % age Total Dose, Kidney ([2]; i.v., 24 hours): 0.57% and 1.63% | % age Total Dose, Liver ([2]; i.v., 24 hours): 8.05% and 0.71% | % age Total Dose, Spleen ([2]; i.v., 24 hours): 0.61% and 0.07% | % age Total Dose, Urine ([2]; i.v., 24 hours): 0.52% | % age Total Dose, Heart ([2]; i.v., 4 days): 1.48% | % age Total Dose, Lungs ([2]; i.v., 4 days): 0.95% | % age Total Dose, Muscle ([2]; i.v., 4 days): 0.03% | % age Total Dose, Spleen ([2]; i.v., 4 days): 0.18% | % age Total Dose, Urine ([2]; i.v., 4 days): 1.3% | % age Total Dose, Heart ([2]; i.v., 7 days): 1.53% | % age Total Dose, Kidney ([2]; i.v., 7 days): 0.89% and 5.68% | % age Total Dose, Liver ([2]; i.v., 7 days): 2.91% and 6.53% | % age Total Dose, Lungs ([2]; i.v., 7 days): 0.16% | % age Total Dose, Spleen ([2]; i.v., 7 days): 0.53% and 0.51%

CCCCCCCCCCCCC(NC(=O)C(CCCCCCCCCCCC)NC(=O)C(CCCCCCCCCCCC)NC(=O)[C@H](CCCCNC(=O)[C@H](CCCCNC(=O)[C@H](CCCCNC(=O)[C@@H](N)CCCCN)NC(=O)[C@@H](N)CCCCN)NC(=O)[C@H](CCCCNC(=O)[C@@H](N)CCCCN)NC(=O)[C@@H](N)CCCCN)NC(=O)[C@H](CCCCNC(=O)[C@H](CCCCNC(=O)[C@@H](N)CCCCN)NC(=O)[C@@H](N)CCCCN)NC(=O)[C@H](CCCCNC(=O)[C@@H](N)CCCCN)NC(=O)[C@@H](N)CCCCN)C(N)=O (some centres unmarked) [Compound 1b]
effect of complexing to DNA on erythrocyte lysis (Rat red blood cells): reduces levels of erythrocyte lysis
